# In patent US20120015957A1, “PIPERAZINYL DERIVATIVES USEFUL AS MODULATORS OF THE NEUROPEPTIDE Y2 RECEPTOR” (priority 2007, published 2012):
# Target: T1, NPY Y2 receptor (Homo sapiens, UniProt P49146)
# T1 construct: endogenous in cells; host or cells: KAN-Ts cells (membrane preparation)
# T1 sequence (P49146 1-381): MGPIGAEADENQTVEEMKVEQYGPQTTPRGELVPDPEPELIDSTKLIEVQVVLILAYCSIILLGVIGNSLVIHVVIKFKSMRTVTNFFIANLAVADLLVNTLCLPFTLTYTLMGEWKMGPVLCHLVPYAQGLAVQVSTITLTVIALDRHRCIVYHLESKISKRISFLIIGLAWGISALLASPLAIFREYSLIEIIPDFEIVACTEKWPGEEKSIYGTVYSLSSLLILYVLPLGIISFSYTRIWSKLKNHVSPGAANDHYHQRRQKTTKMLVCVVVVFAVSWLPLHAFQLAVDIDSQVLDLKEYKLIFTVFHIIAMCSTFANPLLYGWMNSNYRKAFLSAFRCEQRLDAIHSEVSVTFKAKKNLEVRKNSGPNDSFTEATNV
# Assay: Neuropeptide Y2 radioligand binding assay ([125I]PYY, KAN-Ts cell membranes)
# Conditions: membranes of KAN-Ts cells endogenously expressing Y2 receptors; [125I]PYY 80 pM; 1 h at rt; read-out: IC50 (μM), NPY Y2 binding
# Experimental: KAN-Ts endogenously expressing Y2 receptors were used for the radioligand binding assay. Cells were grown to confluence on 150 cm^2 tissue culture plates, washed with phosphate-buffered saline (PBS), and scraped into 50 mL tubes. After centrifugation, the supernatant was aspirated, and the pellets frozen and stored at −80° C. Thawed pellets were homogenized with a polytron tissue grinder for 15 sec in 20 mM Tris-HCl, 5 mM EDTA. The homogenate was centrifuged at 800×g for 5 min and the collected supernatant was recentrifuged at 25000×g for 25 min. The resulting pellet was resuspended in binding buffer (20 mM HEPES, 120 mM NaCl, 0.22 mM KH2PO4, 1.3 mM CaCl2, 0.8 mM MgSO4). Membranes were incubated with [^125I]PYY (80 pM) in the presence or absence of test compound for 1 h at rt. The reaction was stopped by filtration through GF/C filter plates pre-soaked in 0.3% polyethylenimine and subsequently washed with Tris 50 mM, 5 mM EDTA buffer. Plates were dried for 1 h in a 55° C. oven, scintillation fluid was added and the radioactivity was counted in a Packard TopCount. Specific binding to the NPY receptor subtypes was determined by radioactivity that was bound in the presence of […] NPY. Each binding experiment was repeated three to eight times, each in duplicate. IC50 values (i.e. concentration of unlabelled peptide or antagonist required to compete for 50% of specific binding to the radioligand) were determined using the GraphPad Prism software (GraphPad Software Inc., San Diego Calif.) with a fit to a sigmoidal dose response curve. Apparent K values were as K=IC50/(1+C/KD), where C is concentration of the radioligand.
row,IC50 [µM],Structure (SMILES)
1,0.18,"CCN(CC)C(=O)C(c1ccccc1)N1CCN(c2ccc(-c3noc(C(F)(F)F)n3)cc2F)CC1 (stereo not shown) [Compound 118, N,N-Diethyl-2-{4-[2-fluoro-4-(5-trifluoromethyl-[1,2,4]oxadiazol-3-yl)-phenyl]-piperazin-1-yl}-2-phenyl-acetamide]"
2,0.12,"CC(C)c1noc(-c2ccc(N3CCN(C(C(=O)N4CCCC4)c4ccccc4)CC3)c(F)c2)n1 (stereo not shown) [Compound 185, 2-{4-[2-Fluoro-4-(3-isopropyl-[1,2,4]oxadiazol-5-yl)-phenyl]-piperazin-1-yl}-2-phenyl-1-pyrrolidin-1-yl-ethanone]"
3,6.3,"CCN(CC)C(=O)C(c1ccccc1)N1CCN(c2ccc(-c3noc(CC(C)(C)C)n3)cc2F)CC1 (stereo not shown) [Compound 79, 2-(4-{4-[5-(2,2-Dimethyl-propyl)-[1,2,4]oxadiazol-3-yl]-2-fluoro-phenyl}-piperazin-1-yl)-N,N-diethyl-2-phenyl-acetamide]"
4,0.097,"CCc1noc(-c2ccc(N3CCN(C(C(=O)N(CC)CC)c4ccccc4)CC3)c(F)c2)n1 (stereo not shown) [Compound 71, N,N-Diethyl-2-{4-[4-(3-ethyl-[1,2,4]oxadiazol-5-yl)-2-fluoro-phenyl]-piperazin-1-yl}-2-phenyl-acetamide]"
5,0.85,"CCN(CC)C(=O)C(c1ccccc1)N1CCN(c2ccc(-c3noc(C4CCC4)n3)cc2F)CC1 (stereo not shown) [Compound 89, 2-{4-[4-(5-Cyclobutyl-[1,2,4]oxadiazol-3-yl)-2-fluoro-phenyl]-piperazin-1-yl}-N,N-diethyl-2-phenyl-acetamide]"
6,0.24,"COC(=O)C(c1ccccc1)N1CCN(c2ccc(-c3nc(C(C)C)no3)cc2F)CC1 (stereo not shown) [Compound 213, {4-[2-Fluoro-4-(3-isopropyl-[1,2,4]oxadiazol-5-yl)-phenyl]-piperazin-1-yl}-phenyl-acetic acid methyl ester]"
7,1.9,"CCN(CC)C(=O)C(c1ccccc1)N1CCN(c2ccc(-c3ccc(OC)cc3)cc2F)CC1 (stereo not shown) [Compound 205, N,N-Diethyl-2-[4-(3-fluoro-4′-methoxy-biphenyl-4-yl)-piperazin-1-yl]-2-phenyl-acetamide]"
8,> 10,"CCOC(=O)c1nc(-c2ccc(N3CCN(C(C(=O)N(CC)CC)c4ccccc4)CC3)c(F)c2)no1 (stereo not shown) [Compound 130, 3-{4-[4-(Diethylcarbamoyl-phenyl-methyl)-piperazin-1-yl]-3-fluoro-phenyl}-[1,2,4]oxadiazole-5-carboxylic acid ethyl ester]"
9,0.075,"CCc1noc(-c2ccc(N3CCN(C(C(=O)N(C)CC)c4ccccc4)CC3)c(F)c2)n1 (stereo not shown) [Compound 197, N-Ethyl-2-{4-[4-(3-ethyl-[1,2,4]oxadiazol-5-yl)-2-fluoro-phenyl]-piperazin-1-yl}-N-methyl-2-phenyl-acetamide]"
10,2.4,"CCN(CC)C(=O)C(c1ccccc1)N1CCN(c2ccc(-c3nc(C(C)C)no3)cc2CN(C)C)CC1 (stereo not shown) [Compound 259, 2-{4-[2-Dimethylaminomethyl-4-(3-isopropyl-[1,2,4]oxadiazol-5-yl)-phenyl]-piperazin-1-yl}-N,N-diethyl-2-phenyl-acetamide]"

row,Structure (SMILES),IC50 [µM]
1,"CCN(CC)C(=O)C(c1ccccc1)N1CCN(c2ccc(-c3cc(C)n[nH]3)cc2F)CC1 (stereo not shown) [Compound 200, N,N-Diethyl-2-{4-[2-fluoro-4-(5-methyl-2H-pyrazol-3-yl)-phenyl]-piperazin-1-yl}-2-phenyl-acetamide]",0.81
2,"CCN(CC)C(=O)C(c1ccccc1)N1CCN(c2ccc(-c3cnn(C)c3)cc2F)CC1 (stereo not shown) [Compound 195, N,N-Diethyl-2-{4-[2-fluoro-4-(1-methyl-1H-pyrazol-4-yl)-phenyl]-piperazin-1-yl}-2-phenyl-acetamide]",0.9
3,"CCc1nc(-c2ccc(N3CCN(C(C(=O)N(CC)CC)c4ccccc4)CC3)c(F)c2)no1 (stereo not shown) [Compound 3, N,N-Diethyl-2-{4-[4-(5-ethyl-[1,2,4]oxadiazol-3-yl)-2-fluoro-phenyl]-piperazin-1-yl}-2-phenyl-acetamide]",0.24
